This is an account of results in patent US9346812B2, “Substituted pyrrolopyrimidine compounds, compositions thereof, and methods of treatment therewith” (Signal Pharmaceutical LLC, priority 2013, dated 2016).

Each structure is given as a SMILES string. Like-named read-outs stand apart in the source and are kept apart here. Where only a bound is given, the exact number is not on record here.

The experiment deals with CAL51 cell proliferation. The experiment in a line: Cell Titer Glo Proliferation Assay (CAL51). Type of experiment: cell-based, human. The note with it: Homo sapiens, read-out: Act. Level. The method in brief:
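Viability is measured by CellTiter-Glo luminescence after 72 h of compound exposure. CAL51 cells were seeded in growth medium with 10% FBS and 2 mM glutamine, cultured overnight, then dosed with compound dilutions, vehicle held at 0.2% DMSO.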

Setting [1] is: CAL-51, CAL51 cell proliferation, 72 h, Cell Titer Glo luminescence.

As for `CNc1nc(Nc2ccc(C(=O)N(C)C)cc2Cl)nc2[nH]cc(-c3ccc(-c4nnc[nH]4)cc3)c12` [Example 72, 4-(5-(4-(4H-1,2,4-triazol-3-yl)phenyl)-4-(methylamino)-7H-pyrrolo[2,3-d]pyrimidin-2-ylamino)-3-chloro-N,N-dimethylbenzamide], under setting [1], the IC50 was in the range of 400 to 1000 nM.
The same measure, in the same setting: for `CNC(=O)c1ccc(Nc2nc(OC(C)C)c3c(-c4ccc(-c5ncc[nH]5)cc4)c[nH]c3n2)c(OC)c1` [Example 193, 4-(5-(4-(1H-imidazol-2-yl)phenyl)-4-isopropoxy-7H-pyrrolo [2,3-d]pyrimidin-2-ylamino)-3-methoxy-N-methylbenzamide] the value was < 100 nM; for `COc1cc(C(=O)N[C@H]2CCC[C@@H]2O)ccc1Nc1nc(OC2CCCC2)c2c(-c3ccc4nc(C)oc4c3)c[nH]c2n1` [Example 265, 4-(4-(cyclopentyloxy)-5-(2-methylbenzo[d]oxazol-6-yl)-7H-pyrrolo[2,3-d]pyrimidin-2-ylamino)-N-((1S,2S)-2-hydroxy-cyclopentyl)-3-methoxybenzamide], 100 to 400 nM; for `CNC(=O)c1ccc(Nc2nc(O[C@H]3CC[C@@](C)(O)CC3)c3c(-c4ccc5nc(C)oc5c4)c[nH]c3n2)c(C)c1` [Example 151, 4-(4-((1s,4s)-4-hydroxy-4-methylcyclohexyloxy)-5-(2-methylbenzo[d]oxazol-6-yl)-7H-pyrrolo[2,3-d]pyrimidin-2-ylamino)-N,3-dimethylbenzamide], < 100 nM.
For `CNC(=O)c1ccc(Nc2nc(OC3CCOCC3)c3c(-c4ccnc(NC(C)=O)c4)c[nH]c3n2)c(OC)c1` [Example 236, 4-(5-(2-acetamidopyridin-4-yl)-4-(tetrahydro-2H-pyran-4-yloxy)-7H-pyrrolo[2,3-d]pyrimidin-2-ylamino)-3-methoxy-N-methylbenzamide], the IC50 under setting [1] is < 100 nM.
Take `CNC(=O)c1ccc(Nc2nc(OC3CCCC3)c3c(-c4cccc(C(C)(C)O)c4)c[nH]c3n2)c(OC)c1` [Example 47, 4-(4-(cyclopentyloxy)-5-(3-(2-hydroxypropan-2-yl)phenyl)-7H-pyrrolo[2,3-d]pyrimidin-2-ylamino)-3-methoxy-N-methylbenzamide]: under setting [1], the IC50 is 400 to 1000 nM.
In the case of `COc1cc(C(=O)NC2COC2)ccc1Nc1nc(OC2CCC2)c2c(-c3cnn(C)c3)c[nH]c2n1` [Example 302, 4-(4-cyclobutoxy-5-(1-methyl-1H-pyrazol-4-yl)-7H-pyrrolo[2,3-d]pyrimidin-2-ylamino)-3-methoxy-N-(oxetan-3-yl) benzamide], the IC50 under setting [1] was in the range of 100 to 400 nM.
Turning to `CNC(=O)c1ccc(Nc2nc(O[C@H]3CCOC3)c3c(-c4ccnc(C)c4)c[nH]c3n2)c(OC)c1` [Example 178, (S)-3-methoxy-N-methyl-4-(5-(2-methylpyridin-4-yl)-4-(tetrahydrofuran-3-yloxy)-7H-pyrrolo [2,3-d]pyrimidin-2-ylamino) benzamide], under setting [1], the IC50 was < 100 nM.
Turning to `Cc1cc(-c2c[nH]c3nc(Nc4ccc(C(=O)N(C)C)cc4C)nc(OC4CCOCC4)c23)ccn1` [Example 117, N,N,3-trimethyl-4-(5-(2-methyl-pyridin-4-yl)-4-(tetrahydro-2H-pyran-4-yloxy)-7H-pyrrolo[2,3-d]pyrimidin-2-ylamino)benzamide], the IC50 under setting [1] was < 100 nM.
Take `CNC(=O)c1ccc(Nc2nc(OC3CCCC3)c3c(-c4ccc(O)cc4)c[nH]c3n2)cc1` [Example 1, 4-(4-(cyclopentyloxy)-5-(4-hydroxyphenyl)-7H-pyrrolo[2,3-d]pyrimidin-2-ylamino)-N-methylbenzamide]: for the setting “CAL-51, 72 h”, the IC50 was < 100 nM.
For the compound `CNC(=O)c1ccc(Nc2nc(O[C@H]3CC[C@H](O)CC3)c3c(-c4ccc(O)cc4)c[nH]c3n2)c(OC)c1` [Example 45, 4-(4-((1r,4R)-4-hydroxycyclo-hexyloxy)-5-(4-hydroxyphenyl)-7H-pyrrolo[2,3-d]pyrimidin-2-ylamino)-3-methoxy-N-methylbenzamide], the IC50 under setting [1] is < 100 nM.
As for `Cc1nc2ccc(-c3c[nH]c4nc(Nc5ccc(C(=O)N6CCOCC6)cc5C)nc(OC5CCCC5)c34)cc2o1` [Example 86, (4-(4-(cyclopentyloxy)-5-(2-methylbenzo[d]oxazol-6-yl)-7H-pyrrolo[2,3-d]pyrimidin-2-ylamino)-3-methylphenyl) (morpholino)methanone], the IC50 under setting [1] lay within 100 to 400 nM.
Still for that read-out and setting: for `COc1cc(C(=O)N(C)CC(N)=O)ccc1Nc1nc(OC2CCCC2)c2c(-c3ccc4nc(C)oc4c3)c[nH]c2n1` [Example 268, N-(2-amino-2-oxoethyl)-4-(4-(cyclopentyloxy)-5-(2-methylbenzo[d]oxazol-6-yl)-7H-pyrrolo[2,3-d]pyrimidin-2-ylamino)-3-methoxy-N-methylbenzamide] the value was < 100 nM; for `CNC(=O)c1ccc(Nc2nc(NC(C)C)c3c(-c4ccc5nc(C)oc5c4)c[nH]c3n2)c(OC)c1` [Example 202, 4-(4-(isopropylamino)-5-(2-methylbenzo[d]oxazol-6-yl)-7H-pyrrolo[2,3-d]pyrimidin-2-ylamino)-3-methoxy-N-methylbenzamide], < 100 nM.
Same read-out and setting: for `CNC(=O)c1cccc(-c2c[nH]c3nc(Nc4ccc(C(=O)NC)cc4OC)nc(OC4CCCC4)c23)c1` [Example 59, 4-(4-(cyclopentyloxy)-5-(3-(methylcarbamoyl)phenyl)-7H-pyrrolo[2,3-d]pyrimidin-2-ylamino)-3-methoxy-N-methylbenzamide] the value was 100 to 400 nM.
Still for that read-out and setting: under `COc1cc(C(=O)N2CCC(OC)CC2)ccc1Nc1nc(OC2CCCC2)c2c(-c3ccc4nc(C)oc4c3)c[nH]c2n1` [Example 275, (4-(4-(cyclopentyloxy)-5-(2-methylbenzo[d]oxazol-6-yl)-7H-pyrrolo[2,3-d]pyrimidin-2-ylamino)-3-methoxyphenyl)(4-methoxypiperidin-1-yl)methanone] stands < 100 nM; under `CNC(=O)c1ccc(Nc2nc(O[C@H]3CCOC3)c3c(-c4ccnn4C)c[nH]c3n2)c(C(C)C)c1` [Example 225, (S)-3-isopropyl-N-methyl-4-(5-(1-methyl-1H-pyrazol-5-yl)-4-(tetrahydrofuran-3-yloxy)-7H-pyrrolo[2,3-d]pyrimidin-2-ylamino)benzamide], 1000 to 10000 nM.
As to `CNC(=O)c1ccc(Nc2nc(OC3CCCC3)c3c(-c4ccc(O)c(C#N)c4)c[nH]c3n2)c(OC)c1` [Example 33, 4-(5-(3-cyano-4-hydroxyphenyl)-4-(cyclopentyloxy)-7H-pyrrolo[2,3-d]pyrimidin-2-ylamino)-3-methoxy-N-methylbenzamide], the IC50 under setting [1] was < 100 nM.
For `CCOc1ccc(-c2c[nH]c3nc(Nc4ccc(C(=O)N(C)C)cc4C)nc(OC4CCOCC4)c23)cn1` [Example 109, 4-(5-(6-ethoxypyridin-3-yl)-4-(tetrahydro-2H-pyran-4-yloxy)-7H-pyrrolo[2,3-d]pyrimidin-2-ylamino)-N,N,3-trimethylbenzamide], under setting [1], the IC50 is < 100 nM.
In the case of `COc1cc(C(=O)N(C)CCC#N)ccc1Nc1nc(OC2CCCC2)c2c(-c3ccc4nc(C)oc4c3)c[nH]c2n1` [Example 248, N-(2-cyanoethyl)-4-(4-(cyclo-pentyloxy)-5-(2-methylbenzo[d]oxazol-6-yl)-7H-pyrrolo[2,3-d]pyrimidin-2-ylamino)-3-methoxy-N-methylbenzamide], the IC50 under setting [1] was < 100 nM.
The same measure, in the same setting: for `CNC(=O)c1ccc(Nc2nc(OC3CCOCC3)c3c(-c4cccc(S(C)(=O)=O)c4)c[nH]c3n2)c(OC)c1` [Example 106, 3-methoxy-N-methyl-4-(5-(3-(methylsulfonyl)phenyl)-4-(tetrahydro-2H-pyran-4-yloxy)-7H-pyrrolo[2,3-d]pyrimidin-2-ylamino)benzamide] the value was < 100 nM.
With `COc1cc(C(=O)N[C@@H]2CCC[C@H]2O)ccc1Nc1nc(OC2CCCC2)c2c(-c3ccc4nc(C)oc4c3)c[nH]c2n1` [Example 266, 4-(4-(cyclopentyloxy)-5-(2-methylbenzo[d]oxazol-6-yl)-7H-pyrrolo[2,3-d]pyrimidin-2-ylamino)-N-((1R,2R)-2-hydroxycyclopentyl)-3-methoxybenzamide], the IC50 under setting [1] was in the range of 100 to 400 nM.
In the case of `CNC(=O)c1ccc(Nc2nc(OC3CCCC3)c3c(-c4ccc(NC(C)=O)c(O)c4)c[nH]c3n2)c(OC)c1` [Example 290, 4-(5-(4-acetamido-3-hydroxy-phenyl)-4-(cyclopentyloxy)-7H-pyrrolo[2,3-d]pyrimidin-2-ylamino)-3-methoxy-N-methylbenzamide], under setting [1], the IC50 is 100 to 400 nM.
Still for that read-out and setting: for `CNC(=O)c1ccc(Nc2nc(OCCO)c3c(-c4ccc5nc(C)oc5c4)c[nH]c3n2)c(OC)c1` [Example 168, 4-(4-(2-hydroxyethoxy)-5-(2-methylbenzo[d]oxazol-6-yl)-7H-pyrrolo[2,3-d]pyrimidin-2-ylamino)-3-methoxy-N-methylbenzamide] the value was < 100 nM; for `CNC(=O)c1ccc(Nc2nc(OC(C)C)c3c(-c4ccc5nc(C)oc5c4)c[nH]c3n2)c(OC)c1` [Example 125, 4-(4-isopropoxy-5-(2-methylbenzo[d]oxazol-6-yl)-7H-pyrrolo[2,3-d]pyrimidin-2-ylamino)-3-methoxy-N-methylbenzamide], < 100 nM; for `Cc1nc2ccc(-c3c[nH]c4nc(Nc5ccc(C(=O)N(C)C)cc5C)nc(OC5CCOCC5)c34)cc2[nH]1` [Example 128, N,N,3-trimethyl-4-(5-(2-methyl-1H-benzo[d]imidazol-6-yl)-4-(tetrahydro-2H-pyran-4-yloxy)-7H-pyrrolo[2,3-d]pyrimidin-2-ylamino)benzamide], < 100 nM.
Still for that read-out and setting: for `COc1cc(C(=O)N(C)CCC(N)=O)ccc1Nc1nc(OC2CCCC2)c2c(-c3ccc4nc(C)oc4c3)c[nH]c2n1` [Example 257, N-(3-amino-3-oxopropyl)-4-(4-(cyclopentyloxy)-5-(2-methylbenzo[d]oxazol-6-yl)-7H-pyrrolo[2,3-d]pyrimidin-2-ylamino)-3-methoxy-N-methylbenzamide] the value was < 100 nM; for `COc1cc(C(=O)NCC(C)(F)F)ccc1Nc1nc(OC2CCCC2)c2c(-c3ccc4nc(C)oc4c3)c[nH]c2n1` [Example 309, 4-(4-(cyclopentyloxy)-5-(2-methylbenzo[d]oxazol-6-yl)-7H-pyrrolo[2,3-d]pyrimidin-2-ylamino)-N-(2,2-difluoropropyl)-3-methoxybenzamide], 100 to 400 nM.
